# Publication PMC8416018, “Characterization of the ABC methionine transporter from Neisseria meningitidis reveals that lipidated MetQ is required for interaction” (eLife, 2021)
# Molecular target: T1, lipo-NmMetQ:NmMetNI (methionine site) (Neisseria meningitidis, UniProt Q7DD63)
# T1 construct: gene NMB1946; full-length MetQ, signal cleaved, triacylated at Cys20, C-terminal His10; MetNI with His10 on MetN; DDM-solubilized; E. coli; Methionine ABC transporter permease protein MetI
# T1 sequence (Q7DD63 20-287): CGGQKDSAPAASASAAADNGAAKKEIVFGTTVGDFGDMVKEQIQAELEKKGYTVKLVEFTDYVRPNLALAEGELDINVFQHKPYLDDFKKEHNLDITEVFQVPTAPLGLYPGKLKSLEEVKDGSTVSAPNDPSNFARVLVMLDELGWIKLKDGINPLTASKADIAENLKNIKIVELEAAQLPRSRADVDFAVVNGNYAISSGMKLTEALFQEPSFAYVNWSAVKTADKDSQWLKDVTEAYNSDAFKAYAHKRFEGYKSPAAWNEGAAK
# T1 sequence (Q9JXP2 1-245 partner): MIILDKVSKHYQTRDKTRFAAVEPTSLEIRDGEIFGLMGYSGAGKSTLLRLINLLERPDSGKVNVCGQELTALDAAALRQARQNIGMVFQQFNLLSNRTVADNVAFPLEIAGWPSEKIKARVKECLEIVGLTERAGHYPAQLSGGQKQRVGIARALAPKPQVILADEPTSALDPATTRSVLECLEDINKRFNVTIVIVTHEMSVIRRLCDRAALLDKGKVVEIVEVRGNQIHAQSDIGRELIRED
# T1 sequence (Q9JXP3 1-228 partner): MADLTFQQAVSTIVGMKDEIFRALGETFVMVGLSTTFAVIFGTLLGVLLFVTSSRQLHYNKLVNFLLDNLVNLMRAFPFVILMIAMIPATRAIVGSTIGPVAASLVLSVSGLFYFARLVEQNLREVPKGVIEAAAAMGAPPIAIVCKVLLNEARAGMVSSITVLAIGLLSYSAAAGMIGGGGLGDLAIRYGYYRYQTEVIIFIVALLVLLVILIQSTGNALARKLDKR
# Assay: EnzChek phosphate ATPase stimulation
# Type: biochemical
# Details: 2 mM ATP, NmMetNI:lipo-NmMetQ:analog 1:8:50 molar ratio, 5 mM MgCl2, pH 7.5, 37 C, 0.05% DDM
row,Compound,EnzChek phosphate ATPase stimulation
1,CSCC[C@H](NC=O)C(=O)O [N-formyl-L-methionine],"methionine analogs led to substrate-stimulated ATPase activity: N-acetyl-L-methionine, N-formyl-L-methionine"

# Molecular target: T2, NLM-NmMetQ (Neisseria meningitidis, UniProt Q7DD63)
# T2 construct: gene NMB1946; made as in Nguyen et al. 2019; E. coli BL21(DE3) Gold
# T2 sequence (Q7DD63 22-287): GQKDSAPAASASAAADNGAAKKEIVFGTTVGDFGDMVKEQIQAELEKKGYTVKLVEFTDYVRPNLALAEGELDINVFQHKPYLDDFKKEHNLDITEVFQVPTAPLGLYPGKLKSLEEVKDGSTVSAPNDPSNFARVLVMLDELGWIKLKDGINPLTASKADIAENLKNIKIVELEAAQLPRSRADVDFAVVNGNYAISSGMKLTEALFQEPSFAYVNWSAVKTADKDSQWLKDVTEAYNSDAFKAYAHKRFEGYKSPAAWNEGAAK
# Assay: […] NMR FAXS competition
# Type: binding
# Details: 43 uM protein, 43 uM analog, 2 mM trifluoromethyl methionine reporter, T2 120 ms, 300 K; competitive
row,Compound,-ln(CPMG/1D)
1,CSCC[C@@H](N)C(=O)O [D-methionine],D-methionine displaced less reporter than L-methionine
2,CCSCC[C@H](N)C(=O)O [L-ethionine],addition of a methylene group (L-ethionine) was better tolerated
3,CCOC(=O)[C@@H](N)CCSC [L-methionine ethyl ester],L-methionine ethyl ester only partially displaced the reporter molecule
4,CS(=N)(=O)CC[C@H](N)C(=O)O (stereo partly drawn) [L-methionine sulfoximine],"seleno-L-methionine, L-methionine sulfoximine, and L-norleucine were well tolerated"
5,CSCC[C@H](N)C(=O)O [L-methionine],L-methionine completely displaced the reporter molecule
6,CCCC[C@H](N)C(=O)O [L-norleucine],"seleno-L-methionine, L-methionine sulfoximine, and L-norleucine were well tolerated"
7,CSCC[C@H](NC(C)=O)C(=O)O [N-acetyl-L-methionine],Addition of these analogs led to the respective complete or near complete displacement
8,CSCC[C@H](NC=O)C(=O)O [N-formyl-L-methionine],Addition of these analogs led to the respective complete or near complete displacement
9,C[Se]CC[C@H](N)C(=O)O [seleno-L-methionine],"seleno-L-methionine, L-methionine sulfoximine, and L-norleucine were well tolerated"

# Molecular target: T2, NLM-NmMetQ
# Assay: […] NMR CPMG relaxation, direct reporter binding
# Details: 43 uM protein, 2 mM reporter, T2 120 ms, 300 K
row,Compound,-ln(CPMG/1D)
1,N[C@@H](CCSC(F)(F)F)C(=O)O [Trifluoromethyl-methionine],reporter molecule plus NLM-NmMetQ has a high -ln(CPMG/1D) ratio
